This passage reports Activity results from ChEMBL document CHEMBL4266064, “B-973, a Novel α7 nAChR Ago-PAM: Racemic and Asymmetric Synthesis, Electrophysiological Studies, and in Vivo Evaluation” (ACS Med Chem Lett, 2018).

The subject of experiment [1] is Mus musculus. Kind of experiment: Antinociceptive activity in formalin-induced nociception pain ICR mouse model assessed as reduction in time spent licking in hind paw at 10 mg/kg, ip administered 15 mins prior to formalin challenge measured after 20 to 45 mins in presence of alpha7 nAChR antagonist MLA. In kind it is functional, organism-based.
In experiment [2] the test system is Mus musculus. The experiment in a line: Antinociceptive activity in formalin-induced nociception pain ICR mouse model assessed as reduction in time spent licking in hind paw at 10 mg/kg, ip administered 15 mins prior to formalin challenge measured up to 5 mins. In kind it is functional, organism-based.
Experiment [3] deals with Mus musculus. Kind of experiment: Antinociceptive activity in formalin-induced nociception pain ICR mouse model assessed as reduction in paw edema at 3 to 10 mg/kg, ip administered 15 mins prior to formalin challenge measured after 1 hr by calliper method. In kind it is functional, organism-based.
For experiment [4], the target named is Neuronal acetylcholine receptor subunit alpha-7 (Homo sapiens) (UniProt P36544). Kind of experiment: Positive allosteric modulation of human alpha7 nAChR expressed in Xenopus laevis oocytes assessed as increase in acetyl choline-evoked currents at 100 uM pretreated followed by co-treatment with acetyl choline for 21 secs and subsequent compound washout measured after 181 secs by electrophysiology method. The format is cell-based.

For experiment [5] the target is unchanged. Kind of experiment: Positive allosteric modulation of human alpha7 nAChR expressed in Xenopus laevis oocytes assessed as increase in acetyl choline-evoked currents at 10 to 100 uM treated for 21 secs followed by compound washout measured after 181 secs by electrophysiology method. In kind it is cell-based.
Experiment [6] deals with Mus musculus. The experiment in a line: Antinociceptive activity in ip dosed formalin-induced nociception pain ICR mouse model assessed as reduction in time spent licking in hind paw administered 15 mins prior to formalin challenge measured after 20 to 45 mins. The format is functional, organism-based.
Experiment [7] relates to Mus musculus. The experiment in a line: Antinociceptive activity in formalin-induced nociception pain ICR mouse model assessed as reduction in time spent licking in hind paw at 10 mg/kg, ip administered 15 mins prior to formalin challenge measured up to 5 mins in presence of alpha7 nAChR antagonist MLA. The format is functional, organism-based.
Experiment [8] has as its target Neuronal acetylcholine receptor subunit alpha-7 (Homo sapiens) (UniProt P36544). The experiment in a line: Positive allosteric modulation of human alpha7 nAChR expressed in Xenopus laevis oocytes assessed as increase in acetyl choline-evoked currents at 10 uM pretreated followed by co-treatment with acetyl choline for 21 secs and subsequent compound washout measured after 181 secs by electrophysiology method. In kind it is cell-based.

Calls of active or inactive are those of the source. The calls are words filed in the database; no cut-off is given here.

Neuronal acetylcholine receptor subunit alpha-7 (Homo sapiens), sequence (P36544 whole entry): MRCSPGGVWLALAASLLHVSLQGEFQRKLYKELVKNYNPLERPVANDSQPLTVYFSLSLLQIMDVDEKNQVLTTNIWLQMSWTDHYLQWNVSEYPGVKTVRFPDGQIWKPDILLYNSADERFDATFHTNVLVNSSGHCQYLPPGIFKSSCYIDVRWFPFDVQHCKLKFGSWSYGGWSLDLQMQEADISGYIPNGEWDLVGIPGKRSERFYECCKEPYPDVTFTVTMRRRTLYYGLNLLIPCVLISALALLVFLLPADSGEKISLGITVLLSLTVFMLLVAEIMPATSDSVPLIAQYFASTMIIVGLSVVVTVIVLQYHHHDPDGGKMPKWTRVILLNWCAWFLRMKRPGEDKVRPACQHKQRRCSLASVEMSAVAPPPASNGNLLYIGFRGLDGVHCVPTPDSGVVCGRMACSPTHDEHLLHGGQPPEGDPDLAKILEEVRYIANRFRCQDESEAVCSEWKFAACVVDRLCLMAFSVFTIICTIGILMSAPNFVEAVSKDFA

For the compound `C[C@H](NC(=O)CCc1ccc(F)c(F)c1)c1cncc(N2CCN(c3ccccn3)CC2)n1`, the outcome in the experiment on Mus musculus [1] and with Mus musculus [7] was inactive. Further, the result (with Mus musculus [2]; in the experiment with Mus musculus [3]; in experiment [4]; in experiment [5]; in experiment [8]) was Active. The Activity entry in the experiment with Mus musculus [6] was “Dose-dependent effect”.

On to `C[C@@H](NC(=O)CCc1ccc(F)c(F)c1)c1cncc(N2CCN(c3ccccn3)CC2)n1`, for which the outcome in experiment [4] and in experiment [5] was inactive.
